Literature values in paper PMC7074166, “Screening for Small Molecule Modulators of Trypanosoma brucei Hsp70 Chaperone Activity Based upon Alcyonarian Coral-Derived Natural Products” (Marine Drugs, 2020).

Test system: PfHsp70-1
Set-up: method as in PMID 21426241
Details: cited from earlier work

SMILES: CNC(=O)c1c(N(C)C=O)ncn1C/C=C(\C)CC/C=C(\C)CCC/C(C)=C\C(=O)CC(C)C [malonganenone B]
- activity against PfHsp70-1: dose-dependent
